Laboratory results: patent US7455859B2, “Highly concentrated bromine compositions and methods of preparation” (Enviro Tech Chemical Services, Inc., priority 2003, dated 2008)
Entries after “also recorded” stand apart in the source; their conditions may differ.

What was measured:
[1] = cited from earlier work
Pseudomonas aeruginosa = experiment: Biocidal performance, plate counting of viable bacteria (Example 20); format: cell-based; conditions: nominal 0.2 ppm total halogen as Cl2, phosphate buffer pH 8.5, 10 minutes at 35° C.
From the text: The biocidal performance of the liquid composition of the present invention was compared to a solution of sodium bromide activated using an equimolar amount of sodium hypochlorite bleach, and a solution prepared from 1-bromo-3-chloro-5,5-dimethylhydantoin (BCDMH). Sterile phosphate buffer samples (pH 8.5) were inoculated with Pseudomonas aeruginosa to give a concentration of approximately 5×10^6 bacteria/ml and then challenged with the test systems at a nominal concentration of 0.2 ppm total halogen (as Cl2).
After a contact time of 10 minutes at 35° C., an aliquot of sodium thiosulfate was added to each sample to neutralize the halogen. The level of viable bacteria in each sample was determined by plate counting. Plates were incubated at 35° C. for 48 hours.

[2] = Heating of crystals in ceramic crucible on hot plate (Example 23); format: physicochemical; conditions: towel-dried crystals heated on a hot plate
From the text: Another large portion of the crystalline mass was dried with a paper towel and placed in a ceramic crucible that was heated on a hot plate.

[3] = Dissolution of crystalline bromine-containing solid in water; format: physicochemical; conditions: crystalline solid dissolved in water
From the text: The resulting slurry was stirred as solid sodium hydroxide pellets were charged to the reaction flask. […] As the reaction proceeded, a fine powdery precipitate developed which was removed by vacuum filtration. […] Iodometric titration of the resulting golden yellow solution was used to determine its Br2 content of 27.2% (or 12.1% as Cl2). Within a few minutes, this highly concentrated bromine solution started to turn turbid as crystals began to form. The crystallizing solution was chilled in an ice bath to expedite the development of the crystals. A large crop of yellow crystalline material was separated by vacuum filtration, and the mother liquors were retitrated iodometrically. […] There were no insoluble residues. Iodometric titration of resulting solutions was used to calculate that the crystalline solid contained 29.9% Br2 (13.1% as Cl2).
To a stirred reaction flask containing 40% sodium bromide solution was added solid sulfamic acid (82.3 g). The resultant slurry was stirred as 50% sodium hydroxide (60.2 g) was introduced. […] However, the reaction medium became very viscous, and this hampered the mixing efficiency, so deionized water (35.8 g) was added to thin the mixture. The fine powdery precipitate that developed was removed by vacuum filtration. […] The mother liquors were determined to have a bromine content of 20.9% as Br2 (9.3% as Cl2) by iodometric titration. […]

[4] = Storage stability of anhydrous N-bromosulfamate sodium salt in vacuum dessicator (Example 24); format: physicochemical; conditions: three months of storage at room temperature in vacuum dessicator
Method: A further portion of the towel dried crystals from Example 17 was dehydrated by placing in a vacuum dessicator containing molecular sieves. After 15 days, a loss of 31% of the original weight was determined. Although the crystals lost their glass-like appearance, the rhomobohedral shape was retained.
The sodium salt of anhydrous N-bromosulfamate was placed back in the vacuum dessicator.

## CC1(C)C(=O)N(Cl)C(=O)N1Br [BCDMH, 1-bromo-3-chloro-5,5-dimethylhydantoin]
[1]; at 20° C.
  Water solubility: 0.1%
Pseudomonas aeruginosa
  Log Reduction in viable bacteria/ml: 3.3 Log
Pseudomonas aeruginosa; inoculum approx. 5×10^6 bacteria/ml
  Viable bacteria/ml after 10 minutes: 2.5 × 10^3 bacteria/ml

## O=S(=O)([O-])NBr.[Na+] [Example 17, sodium salt of hydrated N-bromosulfamate]
[2]
  Temperature at which water of crystallization boiled off and product decomposed, evolving bromine vapors: about 221 ° F.
[3]
  Dissolution in water: dissolved rapidly and completely; also recorded: dissolved quickly and completely

## O=S(=O)([O-])NBr.[Na+] [sodium salt of anhydrous N-bromosulfamate]
[4]
  Loss of activity on storage: not to have lost any activity

## O=c1n(Cl)c(=O)n(Cl)c(=O)n1Cl [trichloroisocyanuric acid]
[1]; at 25° C.
  Saturated solution in water: 1.1 % as Cl2
